# From patent US20100099561A1, “HETEROBICYCLIC ALKYLTHIO-BRIDGED ISOXAZOLINES” (E.I. DU PONT DE NEMOURS AND COMPANY, priority 2008, published 2010)
# Experiments:
# Format in all cases: in vivo
# corn (Zea mays) [1] = assay: Test A preemergence, corn; details: 0 to 100 scale (0 no effect, 100 complete control)
# Outline: (§1)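 Pre: directed soil spray after sowing in loam/sand. Post: seedlings at 1–2 leaf stage, 2–10 cm. Vehicle: non-phytotoxic solvent mix + surfactant. Greenhouse ~10 d; visual injury 0–100 vs untreated controls.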
# [2] = test system: giant foxtail (Setaria faberi); assay: Test A postemergence, giant foxtail; details: 0 to 100 scale (0 no effect, 100 complete control)
# Outline: as §1
# [3] = test system: morningglory (Ipomoea spp.); assay: Test A postemergence, morningglory; details: 0 to 100 scale (0 no effect, 100 complete control)
# Outline: as §1
# [4] = test system: Italian ryegrass (Lolium multiflorum); assay: Test B preemergence, Italian ryegrass; details: Preemergence, scale 0 to 100
# Text: (§2) Seeds of plant species selected from blackgrass (Alopecurus myosuroides), downy bromegrass (Bromus tectorum), green foxtail (Setaria viridis), Italian ryegrass (Lolium multiflorum), wheat (Triticum aestivum), wild oat (Avena fatua), catchweed bedstraw (Galium aparine), bermudagrass (Cynodon dactylon), Surinam grass (Brachiaria decumbens), cocklebur (Xanthium strumarium), corn (Zea mays), large crabgrass (Digitaria sanguinalis), woolly cupgrass (Eriochloa villosa), giant foxtail (Setaria faberii), goosegrass (Eleusine indica), johnsongrass (Sorghum halepense), kochia (Kochia scoparia), lambsquarters (Chenopodium album), morningglory (Ipomoea coccinea), nightshade (eastern black nightshade, Solanum ptycanthum), yellow nutsedge (Cyperus esculentus), pigweed (Amaranthus retroflexus), ragweed (common ragweed, Ambrosia elatior), soybean (Glycine max), sunflower (common oilseed sunflower, Helianthus annuus), Russian thistle (Salsola kali), and velvetleaf (Abutilon theophrasti) were planted into a blend of loam soil and sand and treated preemergence with test compounds formulated in a non-phytotoxic solvent mixture which included a surfactant. Treated plants and controls were maintained in a greenhouse for 13 to 15 days, after which time all species were compared to controls and visually evaluated. Plant response ratings, summarized in Table B, are based on a scale of 0 to 100 where 0 is no effect and 100 is complete control. A dash (-) response means no test result.
# corn (Zea mays) [5] = assay: Test B preemergence, corn; details: scale 0 to 100
# Text: as §2
# kochia (Kochia scoparia) = assay: Test B preemergence, kochia; details: scale 0 to 100
# Text: as §2
# [6] = test system: yellow nutsedge (Cyperus esculentus); assay: Test B preemergence, yellow nutsedge; details: scale 0 to 100
# Text: as §2
# [7] = test system: Russian thistle (Salsola kali); assay: Test B preemergence, Russian thistle; details: scale 0 to 100
# Text: as §2
# [8] = test system: velvetleaf (Abutilon theophrasti); assay: Test B preemergence, velvetleaf; details: Preemergence, scale 0 to 100
# Text: as §2
SMILES,"Plant response rating, Corn (corn (Zea mays) [1]; 125 g ai/ha)","Plant response rating, Corn (corn (Zea mays) [1]; 500 g ai/ha)","Plant response rating, Foxtail, Giant ([2]; 125 g ai/ha)","Plant response rating, Foxtail, Giant ([2]; 500 g ai/ha)","Plant response rating, Morningglory ([3]; 125 g ai/ha)","Plant response rating, Morningglory ([3]; 500 g ai/ha)","Plant response rating, Ryegrass, Italian ([4]; 16 g ai/ha)","Plant response rating, Ryegrass, Italian ([4]; 31 g ai/ha)","Plant response rating, Ryegrass, Italian ([4]; 62 g ai/ha)","Plant response rating, Corn (corn (Zea mays) [5]; 16 g ai/ha)","Plant response rating, Corn (corn (Zea mays) [5]; 31 g ai/ha)","Plant response rating, Corn (corn (Zea mays) [5]; 62 g ai/ha)","Plant response rating, Kochia (kochia (Kochia scoparia); 16 g ai/ha)","Plant response rating, Kochia (kochia (Kochia scoparia); 31 g ai/ha)","Plant response rating, Nutsedge, Yellow ([6]; 16 g ai/ha)","Plant response rating, Nutsedge, Yellow ([6]; 31 g ai/ha)","Plant response rating, Nutsedge, Yellow ([6]; 62 g ai/ha)","Plant response rating, Velvetleaf ([8]; 16 g ai/ha)","Plant response rating, Velvetleaf ([8]; 31 g ai/ha)","Plant response rating, Velvetleaf ([8]; 62 g ai/ha)",other results
"CC1(C)CC(S(=O)(=O)Cc2c(C(F)(F)F)nc3n(c2=O)CCO3)=NO1 [Compound 2, 6-[[(4,5-dihydro-5,5-dimethyl-3-isoxazolyl)sulfonyl]methyl]-2,3-dihydro-7-(trifluoromethyl)-5H-oxazolo[3,2-α]pyrimidin-5-one]",0,50,50,80,30,70,0,0,0,0,0,20,0,75,0,0,0,0,0,0,"Plant response rating, Corn (corn (Zea mays) [5]; 8 g ai/ha): 0; Plant response rating, Kochia (kochia (Kochia scoparia); 8 g ai/ha): 0; Plant response rating, Kochia (kochia (Kochia scoparia); 62 g ai/ha): 70; Plant response rating, Nutsedge, Yellow ([6]; 8 g ai/ha): 0; Plant response rating, Russian Thistle ([7]; 8 g ai/ha): 0; Plant response rating, Russian Thistle ([7]; 16 g ai/ha): 0; Plant response rating, Russian Thistle ([7]; 31 g ai/ha): 0; Plant response rating, Russian Thistle ([7]; 62 g ai/ha): 0"
"CC1(C)CC(S(=O)(=O)Cc2c(C(F)(F)F)nc3n(c2=O)CCC3)=NO1 [Compound 11, 3-[[(4,5-dihydro-5,5-dimethyl-3-isoxazolyl)sulfonyl]methyl]-7,8-dihydro-2-(trifluoromethyl)pyrrolo[1,2-α]pyrimidin-4(6H)-one]",0,0,80,80,10,60,0,0,0,0,0,0,,,0,0,0,0,0,0,"Plant response rating, Ryegrass, Italian ([4]; 125 g ai/ha): 90; Plant response rating, Corn (corn (Zea mays) [5]; 125 g ai/ha): 0; Plant response rating, Nutsedge, Yellow ([6]; 125 g ai/ha): 0; Plant response rating, Velvetleaf ([8]; 125 g ai/ha): 65"
CC1(C)CC(S(=O)(=O)Cc2c(C(F)(F)F)nc3ccsn3c2=O)=NO1 [Compound 16],0,0,80,90,0,50,0,0,30,0,0,0,0,0,0,0,0,0,0,0,"Plant response rating, Ryegrass, Italian ([4]; 125 g ai/ha): 60; Plant response rating, Corn (corn (Zea mays) [5]; 125 g ai/ha): 0; Plant response rating, Kochia (kochia (Kochia scoparia); 62 g ai/ha): 0; Plant response rating, Kochia (kochia (Kochia scoparia); 125 g ai/ha): 0; Plant response rating, Nutsedge, Yellow ([6]; 125 g ai/ha): 0; Plant response rating, Velvetleaf ([8]; 125 g ai/ha): 0"
